Source: article PMC8815882, “Screening the pandemic response box identified benzimidazole carbamates, Olorofim and ravuconazole as promising drug candidates for the treatment of eumycetoma” (PLoS Neglected Tropical Diseases, 2022)
Like-named read-outs stand apart in the source and are kept apart here.

How the values were obtained:
[1] = tested on: M. mycetomatis genome strain MM55; experiment: CLSI M38-A2 based in vitro susceptibility screening (XTT or resazurin), growth at fixed concentration; assay type: cell-based, Madurella mycetomatis; conditions: Madurella mycetomatis
M. mycetomatis MM55 = experiment: IC50 determination, 2-fold dilution series 16 to 0.03125 μM; assay type: cell-based, Madurella mycetomatis
[2] = 25 uM, mean, read-out: Percentage survival at 25um, 25 uM mean
[3] = 25 uM, replicate A, read-out: Percentage survival at 25um, 25 um A
[4] = 25 uM, replicate B, read-out: Percentage survival at 25um, 25 uM B
[5] = 25 uM, replicate C, read-out: Percentage survival at 25um, 25 uM C
[6] = mean, read-out: Percentage survival at 100um, 100 uM mean
[7] = replicate (first column), read-out: Percentage survival at 100um, 100 uM A
[8] = replicate (second column), read-out: Percentage survival at 100um, 100 uM A
[9] = replicate (third column), read-out: Percentage survival at 100um, 100 uM A
[10] = Madurella mycetomatis, MM55; read-out: IC90 mean
[11] = Madurella mycetomatis, MM55; replicate 1; read-out: IC50 1
[12] = Madurella mycetomatis, MM55; replicate 1; read-out: IC90 1
[13] = Madurella mycetomatis, MM55; replicate 2; read-out: IC50 2
[14] = Madurella mycetomatis, MM55; replicate 2; read-out: IC90 2
[15] = Madurella mycetomatis, MM55; replicate 3; read-out: IC50 3
[16] = Madurella mycetomatis, MM55; replicate 3; read-out: IC90 3
[17] = 25 uM, mean of three replicates, read-out: Percentage survival at 25um, 25 uM mean
[18] = mean of three replicates, read-out: Percentage survival at 100um, 100 uM mean
[19] = replicate 1, read-out: Percentage survival at 100um, 100 uM A (first replicate column)
[20] = replicate 2, read-out: Percentage survival at 100um, 100 uM A (second replicate column)
[21] = replicate 3, read-out: Percentage survival at 100um, 100 uM A (third replicate column)
[22] = Madurella mycetomatis, MM55, mean of three replicates; read-out: IC50 mean
[23] = Madurella mycetomatis, MM55, mean of three replicates; read-out: IC90 mean
[24] = Madurella mycetomatis, MM55; replicate 1; read-out: IC50 1 um
[25] = Madurella mycetomatis, MM55; replicate 1; read-out: IC90 1 um
[26] = Madurella mycetomatis, MM55; replicate 2; read-out: IC50 2 um
[27] = Madurella mycetomatis, MM55; replicate 2; read-out: IC90 2 um
[28] = Madurella mycetomatis, MM55; replicate 3; read-out: IC50 3 um
[29] = Madurella mycetomatis, MM55; replicate 3; read-out: IC90 3 um

SMILES | activity at 25 µM [1, 2] [%] | activity at 25 µM [1, 3] [%] | activity at 25 µM [1, 4] [%] | activity at 25 µM [1, 5] [%] | activity at 100 µM [1, 6] [%] | activity at 100 µM [1, 7] [%] | activity at 100 µM [1, 8] [%] | activity at 100 µM [1, 9] [%] | Drug static or cidal (M. mycetomatis MM55) | IC90 (M. mycetomatis MM55; [10]) [µM] | IC50 (M. mycetomatis MM55; [11]) [µM] | activity at 100 µM [1, 18] [%] | activity at 100 µM [1, 19] [%] | activity at 100 µM [1, 21] [%] | IC50 (M. mycetomatis MM55; [24]) [µM] | IC90 (M. mycetomatis MM55; [25]) [µM] | IC50 (M. mycetomatis MM55; [26]) [µM] | IC90 (M. mycetomatis MM55; [27]) [µM] | IC50 (M. mycetomatis MM55; [28]) [µM] | IC90 (M. mycetomatis MM55; [29]) [µM] | other results
O=[N+]([O-])/C(Br)=C/c1ccc(Br)o1 [MMV1645051] | 1.68 | 2.2 | -0.118 | 2.96 | 7.68 | -0.809 | 7.74 | 16.1 | Static | > 25 | > 25 |  |  |  |  |  |  |  |  |  | IC90 (M. mycetomatis MM55; [12]): > 25 µM; IC50 (M. mycetomatis MM55; [13]): 23 µM; IC90 (M. mycetomatis MM55; [14]): > 25 µM; IC50 (M. mycetomatis MM55; [15]): > 25 µM; IC90 (M. mycetomatis MM55; [16]): > 25 µM
CC(C)Oc1ccc(-c2nc(-c3cccc4c3CC[C@@H]4NCCO)no2)cc1C#N [MMV1580492] |  | -14.6 | -6.47 | 0.368 |  |  |  |  | Cidal |  |  | 2.78 | -1.25 | 12 | > 25 | > 25 | > 25 | > 25 | > 25 | > 25 | activity at 25 µM [1, 17]: -6.9%; Percent fungal survival at 100 µM [1, 20]: -2.44%; IC50 (M. mycetomatis MM55; [22]): > 25 µM; IC90 (M. mycetomatis MM55; [23]): > 25 µM
Nc1c(C(=O)NCc2ccco2)c2nc3ccccc3nc2n1CCN1CCCCC1 [MMV099714] |  | 45.3 |  |  |  |  |  |  | Static |  |  | 3.55 | -0.102 | 3.69 |  |  |  |  |  |  | activity at 100 µM [1, 20]: 7.05%; activity at 25 µM ([1]; read-out: Percentage survival at 25um, 25 uM B): -3.06%; activity at 25 µM ([1]; read-out: Percentage survival at 25um, 25 uM C): 13%; activity at 25 µM ([1]; read-out: Percentage survival at 25um, 25 uM mean): 18.4%; IC50 (M. mycetomatis MM55; Madurella mycetomatis, MM55, read-out: IC50 1 um): > 25 µM; IC50 (M. mycetomatis MM55; Madurella mycetomatis, MM55, read-out: IC50 2 um): > 25 µM; IC50 (M. mycetomatis MM55; Madurella mycetomatis, MM55, read-out: IC50 3 um): > 25 µM; IC50 (M. mycetomatis MM55; Madurella mycetomatis, MM55, read-out: IC50 mean): > 25 µM; IC90 (M. mycetomatis MM55; Madurella mycetomatis, MM55, read-out: IC90 1 um): > 25 µM; IC90 (M. mycetomatis MM55; Madurella mycetomatis, MM55, read-out: IC90 2 um): > 25 µM; IC90 (M. mycetomatis MM55; Madurella mycetomatis, MM55, read-out: IC90 3 um): > 25 µM; IC90 (M. mycetomatis MM55; Madurella mycetomatis, MM55, read-out: IC90 mean): > 25 µM
FC(F)(F)Oc1ccc(Nc2ccc3cccc(Cl)c3n2)cc1 [MMV1581032] |  | -12.4 | 8.52 | 2.93 |  |  |  |  | Static |  |  | 0.711 | -4.67 | 5.8 | > 25 | > 25 | > 25 | > 25 | > 25 | > 25 | activity at 25 µM [1, 17]: -0.326%; Percent fungal survival at 100 µM [1, 20]: 1%; IC50 (M. mycetomatis MM55; [22]): > 25 µM; IC90 (M. mycetomatis MM55; [23]): > 25 µM
O=S(=O)(Nc1cccc2cccnc12)c1ccccc1 [MMV1578890] |  |  |  |  |  |  |  |  |  |  |  |  |  |  | 6.8 | 23.7 | 12.5 | 22.2 | 12.1 | 22.2 | activity at 25 µM ([1]; 25 uM, mean of three, M. mycetomatis MM55, read-out: Percentage survival at 25um, 25 uM mean): 2.42%; activity at 25 µM ([1]; 25 uM, replicate A, M. mycetomatis MM55, read-out: Percentage survival at 25um, 25 um A): 2.33%; activity at 25 µM ([1]; 25 uM, replicate B, M. mycetomatis MM55, read-out: Percentage survival at 25um, 25 uM B): 0.789%; activity at 25 µM ([1]; 25 uM, replicate C, M. mycetomatis MM55, read-out: Percentage survival at 25um, 25 uM C): 4.13%; activity at 100 µM ([1]; mean of three, M. mycetomatis MM55, read-out: Percentage survival at 100um, 100 uM mean): 29.9%; activity at 100 µM ([1]; replicate 1, M. mycetomatis MM55, read-out: Percentage survival at 100um, 100 uM A (first replicate column)): 1.58%; Percent fungal survival at 100 µM ([1]; replicate 2, M. mycetomatis MM55, read-out: Percentage survival at 100um, 100 uM A (second replicate column)): 81.7%; activity at 100 µM ([1]; replicate 3, M. mycetomatis MM55, read-out: Percentage survival at 100um, 100 uM A (third replicate column)): 6.47%; Drug static or cidal (M. mycetomatis MM55; M. mycetomatis): Static; IC50 (M. mycetomatis MM55; Madurella mycetomatis, MM55, mean of replicates; read-out: IC50 mean): 10.5 µM; IC90 (M. mycetomatis MM55; Madurella mycetomatis, MM55, mean of replicates; read-out: IC90 mean): 22.7 µM
NCC(=O)Nc1ccc(-n2nc(C(F)(F)F)cc2-c2ccc3c(ccc4ccccc43)c2)cc1 [MMV1578560] | 9.74 | 29.4 | -2.28 | 2.05 | 3 | -6.61 | 10.2 | 5.38 | Static | > 25 | 17.4 |  |  |  |  |  |  |  |  |  | IC90 (M. mycetomatis MM55; [12]): > 25 µM; IC50 (M. mycetomatis MM55; [13]): 22.8 µM; IC90 (M. mycetomatis MM55; [14]): > 25 µM; IC50 (M. mycetomatis MM55; [15]): > 25 µM; IC90 (M. mycetomatis MM55; [16]): > 25 µM
